Laboratory results taken from patent US6858589B2, “Methods of and compositions for potentiating the action of agents active on cell wall sites of the susceptible bacteria” (priority 1996, dated 2005).

Experiments:
[1] = Gentamicin concentration-time profile measured in the in vitro culture medium
Description: The aminoglycoside reached a peak concentration of 4 mg/l 30 minutes post-dose and was removed from the E. coli culture by washing. Medium containing 0, 2, 2.5 and 3 mg/l gentamicin was reconstituted and added to the culture at 1 hour after initial exposure to the aminoglycoside (n=6).
With each antibiotic, concentration-time profiles similar to those observed in the blood of clinical patients following conventional intravenous dosing of an aminoglycoside (gentamicin) and pump-driven profiles of gentamicin and cephalosporin (cephazolin) were attained. The concentration-time profiles for each drug class have the general form shown in FIG. IA and FIG. IIIA of the accompanying drawings. Additionally a gentamicin profile of the form shown in FIG. IIIA was generated, which reached a peak of 12 mg/l over 3 hours, was maintained at 12 mg/l for a further hour, then was reconstituted to a range of steady-state concentrations (0, 0.5, 1.0, 2.0, 3.0, 4.0 mg/l) to yield the experimental results shown in Table 4.

[2] = tested on: blood culture isolate of cMRSA; test: Kill kinetics and regrowth patterns of cMRSA exposed to gentamicin profiles and constant beta-lactam; type: cell-based, Staphylococcus aureus
Description: FIGS. 5a and 5b Kill kinetics and regrowth patterns of a clinical isolate of cMRSA.
The CMRSA isolate was cultured in the presence of gentamicin (Delta West, Bentleigh, Australia). An overnight culture of cMRSA in brain heart infusion broth (BHIB) (Oxoid, Bainstoke, England) was diluted to 10^7 CFU/ml in 0.1% peptone water (Oxoid, Bainstoke, England). A 1 ml sample of the 10^7 CFU/ml culture was added to the experimental culture broth, resulting in an initial density of 10^6 CFU/ml. In vitro concentration-time modeling of clinical plasma gentamicin concentration-time profiles assumed linear extrapolation of in vivo data as reported previously.^18 (Bastone et al Antimicrobial Agents and Chemotherapy 37(4): 914-917, 1993). […] Other profiles were constructed by linear extrapolation of these profiles and included 7 and 16 mg/l bolus and infusion profiles. Colony counts were performed at times 0, 0.5, 2.5, 4.5, 6.5, 8.5, 10.5, 24.5 and 48.5 hours for bolus profiles and times 0, 1, 3, 5, 7, 9, 11, 25 and 49 hours for infusion profiles.
In the experiments involving cephazolin the concentration was maintained at 4 mg/l in the BHIB for the entire 48.5 hours. For the experiments involving flucloxacillin the concentration of flucloxacillin was maintained at 2 mg/l for 48.5 hours. Colony counts were performed at times 0, 0,5, 2.5, 4.5, 6.5, 8.5, 10.5, 24.5 and 48.5 hours. […] These included cMRSA in a drug free broth, cMRSA exposed to a bolus profile of gentamicin with a target Cpeak 30 of 6 mg/l only, cMRSA exposed to […] of flucloxacillin only.
All experiments involved six replicates. Gentamicin concentrations were measured at times 0, 0.16, 0.33, 0.5, 2.5, 4.5, 6.5, 8.5, 10.5, 24.5 and 48.5 hours. Gentamicin assay concentrations were determined by fluorescence polarisation immunoassay (AxSYM, Abbot, Ill., U.S.A.) which has a threshold for detection of 0.3 mg/liter. […] (Gibaldi et al, pharmaceutics 2nd edn, 1982).
The blood culture cMRSA isolate was exposed to gentamicin in vitro simulating an in vivo bolus dosing regimen with varying 30 minute post dose concentrations of gentamicin. The same organism was then exposed to gentamicin in vitro simulating an in vivo bolus dosing regime with a 30 minute post dose concentration of 6 mg/l and constant concentration of 4 mg/l of cephazolin or 2 mg/l of flucloxacillin for 48 hours.

[3] = in vitro profile: peak 4 mg/liter, reconstituted to 3.0 mg/liter at 1 hr, maintained 0 hr (control)
[4] = in vitro profile: peak 4 mg/liter, reconstituted to 3.0 mg/liter at 1 hr, maintained 2 hr
[5] = in vitro profile: peak 4 mg/liter, reconstituted to 3.0 mg/liter at 1 hr, maintained 4 hr
[6] = in vitro profile: peak 4 mg/liter, reconstituted to 3.0 mg/liter at 1 hr, maintained 8 hr
[7] = in vitro profile: post-distribution peak 4 mg/liter, reconstituted at 1 hr to 0 mg/liter
[8] = in vitro profile: post-distribution peak 4 mg/liter, reconstituted at 1 hr to 2.0 mg/liter
[9] = in vitro profile: post-distribution peak 4 mg/liter, reconstituted at 1 hr to 2.5 mg/liter
[10] = in vitro profile: post-distribution peak 4 mg/liter, reconstituted at 1 hr to 3.0 mg/liter

In the case of gentamicin, the “AUC 0-49 h” value [1, 3] is reported as 3.93 ± 0.33 mg·h/L, the Cmax [1, 3] is reported as 6.12 ± 0.35 mg/L and the Cmin [1, 3] is reported as 0 mg/L. For the same substance, the “AUC 0-49 h” value [1, 4] was 124.98 ± 3.08 mg·h/L, the Cmax [1, 4] was 6.23 ± 0.27 mg/L and the Cmin [1, 4] was 2.45 ± 0.24 mg/L. The “AUC 0-49 h” value [1, 5] was 120.99 ± 6.05 mg·h/L, the Cmax [1, 5] was 6.30 ± 0.45 mg/L and the Cmin [1, 5] was 2.37 ± 0.34 mg/L. For the same substance, the “AUC 0-49 h” value [1, 6] was 119.78 ± 8.84 mg·h/L, the Cmax [1, 6] was 6.37 ± 0.22 mg/L and the Cmin [1, 6] was 2.35 ± 0.19 mg/L. For the same substance, the “AUC 0-49 h” value [1, 7] was 3.97 ± 0.09 mg·h/L, the Cmax [1, 7] was 6.22 ± 0.33 mg/L and the Cmin [1, 7] was 0 mg/L. The “AUC 0-49 h” value [1, 8] was 102.66 ± 6.91 mg·h/L, the Cmax [1, 8] was 6.32 ± 0.25 mg/L and the Cmin [1, 8] was 1.93 ± 0.24 mg/L. For the same substance, the “AUC 0-49 h” value [1, 9] was 124.40 ± 4.27 mg·h/L, the Cmax [1, 9] was 6.23 ± 0.23 mg/L and the Cmin [1, 9] was 2.47 ± 0.31 mg/L. For the same substance, the “AUC 0-49 h” value [1, 10] was 153.43 ± 11.01 mg·h/L, the Cmax [1, 10] was 6.28 ± 0.37 mg/L and the Cmin [1, 10] was 2.88 ± 0.23 mg/L. For the same substance, the Outcome of exposure ([2]; each agent alone) was “complete kill or eradication was not achieved”, the “Time at which regrowth phase began” value ([2]; gentamicin bolus and infusion profiles, target Cpeak30 7 mg/l) was 24.5 h and the Regrowth ([2]; gentamicin bolus and infusion profiles, target Cpeak30 16 mg/l) was “no regrowth”. For the same substance, the “Time at which early bactericidal effect was evident” value ([2]; gentamicin only, bolus profile Cpeak30 6 mg/l) was no more than 0.5 h.
